In US8188098B2, “GPR119 receptor agonists” (Hoffmann-La Roche Inc., priority 2008, dated 2012):

Biological target: T1, GPR119 receptor (Mesocricetus auratus, UniProt A0A1U8CD06)
T1 construct: which endogenously express the GPR119 receptor; host or cells: HIT-T15 hamster pancreatic islet cells
T1 sequence (A0A1U8CD06 1-334): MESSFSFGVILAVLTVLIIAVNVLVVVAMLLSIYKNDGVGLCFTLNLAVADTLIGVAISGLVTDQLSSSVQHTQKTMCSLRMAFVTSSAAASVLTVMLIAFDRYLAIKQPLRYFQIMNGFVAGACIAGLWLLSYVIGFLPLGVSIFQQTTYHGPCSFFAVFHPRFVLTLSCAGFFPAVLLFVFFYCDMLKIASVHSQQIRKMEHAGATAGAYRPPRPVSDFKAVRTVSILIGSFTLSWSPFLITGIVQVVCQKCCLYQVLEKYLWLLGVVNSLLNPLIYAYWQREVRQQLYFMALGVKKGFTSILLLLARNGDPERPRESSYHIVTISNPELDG
Test: cAMP assay in HIT-T15 hamster pancreatic islet cells (functional agonist activity)
Format: cell-based
Settings: HIT-T15 cells endogenously expressing GPR119; 30 min at 25° C.; intracellular cAMP
In short: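 HIT-T15 cells (endogenous GPR119), 9000/well, exposed to agonist 30 min at 25° C with 0.5 mM IBMX and 0.5 mg/ml BSA. Lysate cAMP measured by chemiluminescent competitive immunoassay; EC50 from curve fit.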

EC50 [µM] | Structure (SMILES)
0.36 | Cc1nc(-n2cncn2)ccc1Oc1ncnc2c1cnn2C1CCN(C(=O)OC(C)(C)C)CC1 [Example 101, 4-[4-(2-Methyl-6-[1,2,4]triazol-1-yl-pyridin-3-yloxy)-pyrazolo[3,4-d]pyrimidin-1-yl]-piperidine-1-carboxylic acid tert-butyl ester]
0.55 | Cc1ncccc1Oc1ncnc2c1cnn2C1CCN(C(=O)OC2CCC2)CC1 [Example 116, 4-[4-(2-Methyl-pyridin-3-yloxy)-pyrazolo[3,4-d]pyrimidin-1-yl]-piperidine-1-carboxylic acid cyclobutyl ester]
0.7 | Cc1nn(C2CCN(C(=O)OC(C)C)CC2)c2ncnc(Oc3cc(F)c(F)cc3F)c12 [Example 17, 4-[3-Methyl-4-(2,4,5-trifluoro-phenoxy)-pyrazolo[3,4-d]pyrimidin-1-yl]-piperidine-1-carboxylic acid isopropyl ester]
0.75 | CC(C)(C)OC(=O)N1CCC(n2ncc3c(Oc4cccc5ncccc45)ncnc32)CC1 [Example 71, 4-[4-(Quinolin-5-yloxy)-pyrazolo[3,4-d]pyrimidin-1-yl]-piperidine-1-carboxylic acid tert-butyl ester]
0.68 | CS(=O)(=O)c1ccc(Oc2ncnc3c2cnn3C2CCN(C(=O)OC(CF)CF)CC2)cc1 [Example 109, 4-[4-(4-Methanesulfonyl-phenoxy)-pyrazolo[3,4-d]pyrimidin-1-yl]-piperidine-1-carboxylic acid 2-fluoro-1-fluoromethyl-ethyl ester]
2.4 | Cc1nc(-n2cncn2)ccc1Nc1ncnc2c1cnn2C1CCN(C(=O)OC(C)(C)C)CC1 [Example 9, 4-[4-(2-Methyl-6-[1,2,4]triazol-1-yl-pyridin-3-ylamino)-pyrazolo[3,4-d]pyrimidin-1-yl]-piperidine-1-carboxylic acid tert-butyl ester]
0.3 | CN(C)S(=O)(=O)c1ccc(Oc2ncnc3c2cnn3C2CCN(C(=O)OC(C)(C)C)CC2)cc1 [Example 57, 4-[4-(4-Dimethylsulfamoyl-phenoxy)-pyrazolo[3,4-d]pyrimidin-1-yl]-piperidine-1-carboxylic acid tert-butyl ester]
1.2 | CC(C)(C)OC(=O)N1CCC(n2ncc3c(Oc4cnc5[nH]ccc5c4)ncnc32)CC1 [Example 72, 4-[4-(1H-Pyrrolo[2,3-b]pyridin-5-yloxy)-pyrazolo[3,4-d]pyrimidin-1-yl]-piperidine-1-carboxylic acid tert-butyl ester]
0.86 | Cc1nc(-n2cncn2)ccc1Oc1ncnc2c1cnn2C1CCN(C(=O)OC(C)C)CC1 [Example 30, 4-[4-(2-Methyl-6-[1,2,4]triazol-1-yl-pyridin-3-yloxy)-pyrazolo[3,4-d]pyrimidin-1-yl]-piperidine-1-carboxylic acid isopropyl ester]
0.99 | CC(C)C(=O)N1CCC(n2ncc3c(Oc4ccc(S(C)(=O)=O)cc4)ncnc32)CC1 [Example 136, 1-{4-[4-(4-Methanesulfonyl-phenoxy)-pyrazolo[3,4-d]pyrimidin-1-yl]-piperidin-1-yl}-2-methyl-propan-1-one]
0.65 | CC(C)(C)OC(=O)N1CCC(n2ncc3c(Oc4ccc(C(N)=O)cc4)ncnc32)CC1 [Example 62, 4-[4-(4-Carbamoyl-phenoxy)-pyrazolo[3,4-d]pyrimidin-1-yl]-piperidine-1-carboxylic acid tert-butyl ester]
0.39 | Cc1cc(C(=O)N2CCC(n3ncc4c(Oc5ccc(S(C)(=O)=O)cc5)ncnc43)CC2)nn1C [Example 152, (1,5-Dimethyl-1H-pyrazol-3-yl)-{4-[4-(4-methanesulfonyl-phenoxy)-pyrazolo[3,4-d]pyrimidin-1-yl]-piperidin-1-yl}-methanone]
0.095 | CC(C)(C)OC(=O)N1CCC(n2ncc3c(Oc4ccc(S(C)(=O)=O)c(F)c4)ncnc32)CC1 [Example 61, 4-[4-(3-Fluoro-4-methanesulfonyl-phenoxy)-pyrazolo[3,4-d]pyrimidin-1-yl]-piperidine-1-carboxylic acid tert-butyl ester]
